The numbers were not newly measured in US20170049884A1, “USE OF ANTI-CCR5 ANTIBODIES IN GRAFT VERSUS HOST DISEASE” (CytoDyn Inc., priority 2014, published 2017), which cites them from elsewhere.

For series [1] the following is noted: in vivo; cited from earlier work.
For series [2] the following is noted: single administration of TAK-652 solution; cited from earlier work.

Take `Cc1ccc(-c2ccc3c(c2)C=C(C(=O)Nc2ccc(C[N+](C)(C)C4CCOCC4)cc2)CCC3)cc1.[Cl-]` [TAK-779]: in series [1], the local tolerability result was “local injection site irritation”.

In the case of `CCCCOCCOc1ccc(-c2ccc3c(c2)/C=C(/C(=O)Nc2ccc([S+]([O-])Cc4cncn4CCC)cc2)CCCN3CC(C)C)cc1` (centres unmarked) [TAK-652], in series [2], the safety and tolerability result was “safe and well tolerated”.
